Reference: PubChem BioAssay AID1918939 (Molecular Pharmacology Branch, DTP, NCI, 2023)

System: 653999-131-R-J2-PDC complex spheroid viability
Assay: Anticancer human tumor 653999-131-R-J2-PDC patient-derived lung adenocarcinoma cell line growth inhibition
Details: for IC50: curve of first compound; for viability, T/C: stronger effect = lower value
In short: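 Drug combinations with the LSD1 inhibitor iadademstat tested on tumor cells co-cultured as spheroids with endothelial cells and mesenchymal stem cells. Concentrations descended in half-log increments from clinical Cmax or 10 microM.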

[1] = second compound 0.1 µM, first compound 0.000316 µM
[2] = second compound 0.1 µM, first compound 0.001 µM
[3] = second compound 0.1 µM, first compound 0.00316 µM
[4] = second compound 0.1 µM, first compound 0.01 µM
[5] = second compound 0.1 µM, first compound 0.0316 µM
[6] = second compound 0.1 µM, first compound 0.1 µM
[7] = second compound 0.316 µM, first compound 0.000316 µM
[8] = second compound 0.316 µM, first compound 0.001 µM
[9] = second compound 0.316 µM, first compound 0.00316 µM
[10] = second compound 0.316 µM, first compound 0.01 µM
[11] = second compound 0.316 µM, first compound 0.0316 µM
[12] = second compound 0.316 µM, first compound 0.1 µM
[13] = second compound 1 µM, first compound 0.000316 µM
[14] = second compound 1 µM, first compound 0.001 µM
[15] = second compound 1 µM, first compound 0.00316 µM
[16] = second compound 1 µM, first compound 0.01 µM
[17] = second compound 1 µM, first compound 0.0316 µM
[18] = second compound 1 µM, first compound 0.1 µM
[19] = second compound 3.16 µM, first compound 0.000316 µM
[20] = second compound 3.16 µM, first compound 0.001 µM
[21] = second compound 3.16 µM, first compound 0.00316 µM
[22] = second compound 3.16 µM, first compound 0.01 µM
[23] = second compound 3.16 µM, first compound 0.0316 µM
[24] = second compound 3.16 µM, first compound 0.1 µM
[25] = second compound 10 µM, first compound 0.000316 µM
[26] = second compound 10 µM, first compound 0.001 µM
[27] = second compound 10 µM, first compound 0.00316 µM
[28] = second compound 10 µM, first compound 0.01 µM
[29] = second compound 10 µM, first compound 0.0316 µM
[30] = second compound 10 µM, first compound 0.1 µM
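Further: spheroids exposed to agents for seven days before readout.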

| SMILES | IC50 (second compound 0.1 µM) [nM] | IC50 (second compound 0.316 µM) [nM] | IC50 (second compound 1 µM) [nM] | IC50 (second compound 3.16 µM) [nM] | IC50 (second compound 10 µM) [nM] | viability, T/C [1] [%] | viability, T/C [2] [%] | viability, T/C [3] [%] | viability, T/C [4] [%] | viability, T/C [5] [%] | viability, T/C [6] [%] | viability, T/C [7] [%] | viability, T/C [8] [%] | viability, T/C [9] [%] | viability, T/C [10] [%] | viability, T/C [11] [%] | viability, T/C [12] [%] | viability, T/C [13] [%] | viability, T/C [14] [%] | viability, T/C [15] [%] | further results |
| --- | --- | --- | --- | --- | --- | --- | --- | --- | --- | --- | --- | --- | --- | --- | --- | --- | --- | --- | --- | --- | --- |
| CC(C)CC(NC(=O)C(Cc1ccccc1)NC(=O)c1cnccn1)B(O)O (stereo not given) + NC1CCC(NC2CC2c2ccccc2)CC1 | 2.28 | 2.47 | 2.96 | 2.31 | 2.2 | 108 | 107 | 27.5 | 3.82 | 2.01 | 1.51 | 123 | 124 | 30.1 | 5.95 | 0.76 | 1.38 | 115 | 115 | 46.1 | viability, T/C [16]: 4.39%; viability, T/C [17]: 1.9%; viability, T/C [18]: 1.12%; viability, T/C [19]: 97.6%; viability, T/C [20]: 123%; viability, T/C [21]: 27.4%; viability, T/C [22]: 3.37%; viability, T/C [23]: 1.02%; viability, T/C [24]: 2.22%; viability, T/C [25]: 117%; viability, T/C [26]: 119%; viability, T/C [27]: 18.5%; viability, T/C [28]: 2.92%; viability, T/C [29]: 1.36%; viability, T/C [30]: 0.56% |
| CC(C)CC(NC(=O)CNC(=O)c1cc(Cl)ccc1Cl)B1OC(=O)CC(CC(=O)O)(C(=O)O)O1 (stereo not given) + NC1CCC(NC2CC2c2ccccc2)CC1 | 9.68 | 13.9 | 10.9 | 11.1 | 11.5 | 98.5 | 102 | 106 | 48.4 | 28.5 | 10.7 | 80.7 | 102 | 99 | 60.4 | 21.9 | 8.68 | 87.8 | 90.5 | 95.8 | viability, T/C [16]: 52.7%; viability, T/C [17]: 19.4%; viability, T/C [18]: 10.1%; viability, T/C [19]: 99.1%; viability, T/C [20]: 85.4%; viability, T/C [21]: 106%; viability, T/C [22]: 53.1%; viability, T/C [23]: 26.5%; viability, T/C [24]: 9.89%; viability, T/C [25]: 98.2%; viability, T/C [26]: 104%; viability, T/C [27]: 122%; viability, T/C [28]: 55.4%; viability, T/C [29]: 18.4%; viability, T/C [30]: 5% |
